From ChEMBL document CHEMBL3217509, “Discovery of an HIV integrase inhibitor with an excellent resistance profile” (Medchemcomm, 2013)

Columns and labels:
[1] = system: Human immunodeficiency virus 1; assay: Antiviral activity against HIV1 NL4-3 infected in human MT2 cells after 3 days by human JC53BL cell-based beta-galactosidase reporter gene assay; assay type: functional, organism-based; conditions: Human immunodeficiency virus 1, NL4-3, JC53BL, 72 h
[2] = Intrinsic clearance in human liver microsomes assessed per mg of protein by LC-MS/MS analysis; assay type: ADME; conditions: read-out: CLH
[3] = Intrinsic clearance in human liver microsomes assessed per mg of protein by LC-MS/MS analysis in presence of UDPGA; assay type: ADME; conditions: read-out: CLH
[4] = Intrinsic clearance in human hepatocytes assessed assessed per million of cells by LC-MS/MS analysis; assay type: ADME, cell-based, Hepatocyte; conditions: read-out: CLH

Row | Structure (SMILES) | IC50 [1] [nM] | microsomal CLint [2] [µL/min/mg] | microsomal CLint [3] [µL/min/mg] | hepatocyte CLint [4] [µL/min/1e6 cells]
1 | COc1cc(F)ccc1Cn1ccc2c3c(ncc21)C(=O)N(O)C3(C)C | > 7480 | < 8 | 4.8 | 28.8
2 | COc1cc(F)ccc1Cn1ccc2c3c(ncc21)C(=O)N(O)C(C)(C)C3 | 3.9 | 17 | 19.7 | 37.7
